Assay results as given in patent US20090142323A1, “METHODS FOR TREATING A DISORDER BY REGULATING GPRC6A” (priority 2007, published 2009).

Tests used:
[1] = tested on: bone marrow stromal cells (BMSC); assay: phospho-ERK in bone marrow stromal cells from wild-type and GPRC6A-/- mice; format: cell-based, mouse
Method: The femurs and tibias from 8-week-old wild-type and GPRC6A^−/− mice were dissected, the ends of the bones were cut, and marrow was flushed out with 2 mL of ice-cold a-MEM containing 10% FBS using a needle and syringe. A suspension of bone marrow cells was obtained by repeated aspiration of the cell preparation through a 22-gauge needle, and nucleated cells were counted with a hemocytometer. Cells were seeded into 6-well plates at a density of 3×10^7 cells/mL and cultured for three days in a-MEM supplemented with 10% FBS, 100 kU/L of sodium penicillin G and 100 mg/L of streptomycin sulfate in a humidified incubator with 5% CO2 and 95% air at a temperature of 37° C. On day 3, all nonadherent cells were then removed with the first medium change and then the adherent cells (representing bone marrow-derived mesenchymal stem cells, BMSCs) were grown for additional periods of up 3 days in the same medium. After overnight quiescence, the cells were stimulated for 5 minutes by testosterone and p-estradiol at the concentrations as indicated.

[2] = tested on: seminal vesicles; assay: seminal vesicle size after orchiectomy and testosterone replacement; format: in vivo, mouse; details: testosterone slow releasing pellet
Text: First, the male WT and GPRC6A^−/− littermates will be castrated by removal of the testicles (orchiectomy) and hormone recovered by implanting testosterone slow releasing pellet.

[3] = molecular target: T1, GPRC6A (Mus musculus, UniProt Q8K4Z6); assay: phospho-ERK activation in HEK-293 cells transfected with GPRC6A (immunoblot); format: cell-based; design: expressed in transfected cells; host or cells: HEK-293
T1 sequence (Q8K4Z6 21-928): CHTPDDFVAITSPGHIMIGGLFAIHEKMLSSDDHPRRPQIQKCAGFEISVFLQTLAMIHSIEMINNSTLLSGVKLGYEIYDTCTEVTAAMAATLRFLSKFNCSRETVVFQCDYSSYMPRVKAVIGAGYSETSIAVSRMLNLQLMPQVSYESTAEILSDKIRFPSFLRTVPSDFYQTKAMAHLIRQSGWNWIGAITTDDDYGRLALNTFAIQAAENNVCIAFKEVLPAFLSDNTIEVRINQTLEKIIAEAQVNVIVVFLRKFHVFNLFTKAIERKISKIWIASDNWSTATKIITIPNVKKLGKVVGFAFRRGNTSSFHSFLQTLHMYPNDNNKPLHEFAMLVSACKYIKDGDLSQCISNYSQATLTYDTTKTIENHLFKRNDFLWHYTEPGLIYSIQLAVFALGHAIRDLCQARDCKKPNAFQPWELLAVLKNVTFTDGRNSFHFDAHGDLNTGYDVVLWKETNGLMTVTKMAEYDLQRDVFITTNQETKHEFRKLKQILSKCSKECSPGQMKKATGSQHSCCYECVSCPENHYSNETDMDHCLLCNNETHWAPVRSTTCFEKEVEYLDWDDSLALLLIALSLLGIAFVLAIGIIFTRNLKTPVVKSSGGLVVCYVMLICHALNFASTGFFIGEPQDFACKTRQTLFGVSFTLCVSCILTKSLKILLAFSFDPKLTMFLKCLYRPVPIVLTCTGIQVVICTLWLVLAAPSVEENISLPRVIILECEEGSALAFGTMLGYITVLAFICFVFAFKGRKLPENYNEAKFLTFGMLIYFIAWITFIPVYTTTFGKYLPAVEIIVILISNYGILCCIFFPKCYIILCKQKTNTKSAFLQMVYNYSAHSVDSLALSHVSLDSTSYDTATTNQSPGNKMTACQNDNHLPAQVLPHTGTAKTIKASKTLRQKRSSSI
Method: Equal amounts of lysates were subjected to 10% SDS-PAGE, and phospho-ERK1/2 levels were determined by immunoblotting using antiphospho-ERK1/2 mitogen-activated protein kinase antibody (Cell Signaling Technology). […] An anti-peptide antibody was raised in a rabbit against a peptide ([…] (SEQ ID NO: 27)) corresponding to a sequence in the extracellular domain of mouse GPRC6A (in exon 1 of mouse GPRC6A gene) produced by Abgent (San Diego, Calif.). For phospho-ERK, the phospho-ERK1/2 levels were determined by immunoblotting using anti-phospho-ERK1/2 mitogen-activated protein kinase antibody (Cell Signaling Technology). Urinary β2-microglobulin was detected by rabbit polyclonal anti-β2-microglobulin antibody (Abcam Inc.). For aromatase expression analysis, the rabbit polyclonal anti-aromatase antibody (Abcam Inc.) and goat anti-rabbit IgG HRP secondary antibody (Santa Cruz Biotechnology Inc.) were used. Mouse anti-Actin antibody (Santa Cruz Biotechnology Inc.) was used for control protein loading.

In the case of C[C@]12CC[C@H]3[C@@H](CCC4=CC(=O)CC[C@@]43C)[C@@H]1CC[C@@H]2O [testosterone], the “stimulation of phospho-ERK in BMSC” value ([1]; BMSC from GPRC6A-/- mice, testosterone up to 80 nM) was “only minimal effects”, the “stimulation of phospho-ERK in BMSC” value ([1]; BMSC from wild-type mice) was “substantial stimulation of ERK” and the “recovery of seminal vesicle size” value ([2]; orchidectomized GPRC6A-/- mice) was “weaker compared to wild-type”. The “recovery of seminal vesicle size” value ([2]; orchidectomized wild-type mice) was “effectively recovered the size of seminal vesicles”, the “medium calcium concentration required for testosterone activation of GPRC6A” value [3] was > 0.5 mM and the “activation of phospho-ERK in cytosol and nucleus” value ([3]; GPRC6A expressing HEK-293 cells) was “stimulated activation of phospho-ERK in both the cytosol and nucleus”. The “GPRC6A-mediated activation of phospho-ERK” value ([3]; HEK-293 cells transfected with GPRC6A) was “stimulated extracellular signal-regulated kinase phosphorylation (phospho-ERK) in a dose-dependent fashion”.
